Reference: patent publication US20070281992A1, “COMBINATION OF GYRASE B INHIBITORS AND PROTEIN SYNTHESIS INHIBITORS AND USES THEREOF” (priority 2006, published 2007)
Where two headings read alike, the source gives them in different places.

Experiments:
[1] = tested on: Methicillin-Resistant Staphylococcus aureus Isolates; experiment: MIC assay (NCCLS broth dilution), MRSA clinical isolates; type: cell-based; settings: for MIC: read-out: Minimal Inhibitory Concentration
Method: (§1) Antibiotics: novobiocin, tetracycline, minocycline, oxacillin, and vancomycin were all purchased from Sigma-Aldrich. Linezolid was obtained from Pfizer, Inc. Novobiocin/tetracycline and novobiocin/minocycline were tested in a 2.5:1 ratio to mimic the serum levels. (Vavra, J. J., 1967, Development of resistance to novobiocin, tetracycline, and novobiocin-tetracycline combinations in Staphylococcus aureus populations, J. Bacteriol 93(3):801). Compounds were tested across a concentration range consisting of 11 two-fold serial dilutions of test agent.
(§2) Stock solutions were prepared in sterile deionized water; novobiocin stock concentration was 1600 μg/mL and all other drugs stock solutions were prepared at 640 μg/mL. The stock solutions were allowed to sit at room temperature for one hour to auto-sterilize prior to use in the test. All compounds were in solution in water. The control agent was vancomycin hydrochloride, Sigma Chemical Lot # 015K0825.
(§3) The test organisms for the assay were 52 MSSA, 52 MRSA, 8 VISA, 7 VISE, and 3 LRSA isolates. Quality control strains included Staphylococcus aureus 0100 (ATCC 29213) and Enterococcus faecalis (ATCC 29212).
(§4) The MIC assay was performed according to published NCCLS guidelines. (National Committee for Clinical Laboratory Standards, Methods for Dilution Antimicrobial Susceptibility Tests for Bacteria that Grow Aerobically; Approved Standard-Sixth Edition, NCCLS Document M7-A6 [ISBN 1-56238-486-4], NCCLS, 940 West Valley Road, Suite 1400, Wayne, Pa. 19087-1898 USA, 2003). The test medium was Mueller Hinton II Broth for all organisms.

[2] = tested on: Unconfirmed Vancomycin-intermediate Staphylococcus aureus Isolates; experiment: MIC assay (NCCLS broth dilution), unconfirmed VISA isolates; type: cell-based; settings: for MIC: Staphylococcus aureus, read-out: Minimal Inhibitory Concentration
Method: as §1, §2, §3, §4

[3] = Staphylococcus aureus, 52 MRSA isolates, combinations at 2.5:1, given as NB/partner

- MIC Range ([1]; 52 MRSA isolates, combinations at 2.5:1, given as NB/partner): .06 to .16 µg/mL
- MIC ([1]; Staphylococcus aureus, MRSA isolate 757, 24FEB06): 8 µg/mL
- MIC ([1]; Staphylococcus aureus, MRSA isolate 758, 03MAR06): 0.12 µg/mL
- MIC ([1]; Staphylococcus aureus, MRSA isolate 758, 24FEB06): 0.12 µg/mL
- MIC ([1]; Staphylococcus aureus, MRSA isolate 760, 03MAR06): 0.12 µg/mL
- MIC ([1]; Staphylococcus aureus, MRSA isolate 760, 24FEB06): 0.12 µg/mL
- MIC ([1]; Staphylococcus aureus, MRSA isolate 763, 22FEB06): 0.12 µg/mL
- MIC ([1]; Staphylococcus aureus, MRSA isolate 765, 22FEB06): 0.06 µg/mL
- MIC ([1]; Staphylococcus aureus, MRSA isolate 766, 22FEB06): 0.12 µg/mL
- MIC ([1]; Staphylococcus aureus, MRSA isolate 767, 22FEB06): 0.12 µg/mL
- MIC ([1]; Staphylococcus aureus, MRSA isolate 768, 22FEB06): 0.06 µg/mL
- MIC ([1]; Staphylococcus aureus, MRSA isolate 769, 22FEB06): 0.12 µg/mL
- MIC ([1]; Staphylococcus aureus, MRSA isolate 770, 22FEB06): 0.12 µg/mL
- MIC ([1]; Staphylococcus aureus, MRSA isolate 771, 22FEB06): 0.12 µg/mL
- MIC ([1]; Staphylococcus aureus, MRSA isolate 772, 22FEB06): 0.12 µg/mL
- MIC ([1]; Staphylococcus aureus, MRSA isolate 773, 24FEB06): 0.12 µg/mL
- MIC ([1]; Staphylococcus aureus, MRSA isolate 774, 24FEB06): 0.12 µg/mL
- MIC ([1]; Staphylococcus aureus, MRSA isolate 775, 24FEB06): 0.12 µg/mL
- MIC ([1]; Staphylococcus aureus, MRSA isolate 776, 24FEB06): 0.12 µg/mL
- MIC ([1]; Staphylococcus aureus, MRSA isolate 777, 24FEB06): 0.12 µg/mL
- MIC ([1]; Staphylococcus aureus, MRSA isolate 778, 24FEB06): 0.06 µg/mL
- MIC ([1]; Staphylococcus aureus, MRSA isolate 886, 24FEB06): 0.12 µg/mL
- MIC ([1]; Staphylococcus aureus, MRSA isolate 887, 24FEB06): 0.12 µg/mL
- MIC ([1]; Staphylococcus aureus, MRSA isolate 888, 24FEB06): 0.12 µg/mL
- MIC ([1]; Staphylococcus aureus, MRSA isolate 889, 24FEB06): 0.12 µg/mL
- MIC ([1]; Staphylococcus aureus, MRSA isolate 1004, 24FEB06): 0.12 µg/mL
- MIC ([1]; Staphylococcus aureus, MRSA isolate 1010, 22FEB06): 0.12 µg/mL
- MIC ([1]; Staphylococcus aureus, MRSA isolate 1012, 22FEB06): 0.12 µg/mL
- MIC ([1]; Staphylococcus aureus, MRSA isolate 1013, 22FEB06): 0.12 µg/mL
- MIC ([1]; Staphylococcus aureus, MRSA isolate 1014, 22FEB06): 0.12 µg/mL
- MIC ([1]; Staphylococcus aureus, MRSA isolate 1015, 22FEB06): 0.12 µg/mL
- MIC ([1]; Staphylococcus aureus, MRSA isolate 1016, 22FEB06): 0.12 µg/mL
- MIC ([1]; Staphylococcus aureus, MRSA isolate 1017, 22FEB06): 0.12 µg/mL
- MIC ([1]; Staphylococcus aureus, MRSA isolate 1021, 22FEB06): 0.12 µg/mL
- MIC ([1]; Staphylococcus aureus, MRSA isolate 1022, 22FEB06): 0.12 µg/mL
- MIC ([1]; Staphylococcus aureus, MRSA isolate 1023, 22FEB06): 0.12 µg/mL
- MIC ([1]; Staphylococcus aureus, MRSA isolate 1024, 22FEB06): 0.12 µg/mL
- MIC ([1]; Staphylococcus aureus, MRSA isolate 1025, 22FEB06): 0.12 µg/mL
- MIC ([1]; Staphylococcus aureus, MRSA isolate 1135, 22FEB06): 0.12 µg/mL
- MIC ([1]; Staphylococcus aureus, MRSA isolate 1136, 22FEB06): 0.12 µg/mL
- MIC ([1]; Staphylococcus aureus, MRSA isolate 1137, 22FEB06): 0.12 µg/mL
- MIC ([1]; Staphylococcus aureus, MRSA isolate 1138, 22FEB06): 0.12 µg/mL
- MIC ([1]; Staphylococcus aureus, MRSA isolate 1222, 03MAR06): 0.06 µg/mL
- MIC ([1]; Staphylococcus aureus, MRSA isolate 1222, 24FEB06): 0.12 µg/mL
- MIC ([1]; Staphylococcus aureus, MRSA isolate 1653, 03MAR06): 0.06 µg/mL
- MIC ([1]; Staphylococcus aureus, MRSA isolate 1658, 03MAR06): 0.06 µg/mL
- MIC ([1]; Staphylococcus aureus, MRSA isolate 1659, 03MAR06): 0.06 µg/mL
- MIC ([1]; Staphylococcus aureus, MRSA isolate 1661, 03MAR06): 0.12 µg/mL
- MIC ([1]; Staphylococcus aureus, MRSA isolate 1729, 03MAR06): 16 µg/mL
- MIC ([1]; Staphylococcus aureus, MRSA isolate 1730, 24FEB06): 0.12 µg/mL
- MIC ([1]; Staphylococcus aureus, MRSA isolate 2009, 24FEB06): 1 µg/mL
- MIC ([1]; Staphylococcus aureus, MRSA isolate 2010, 24FEB06): 0.12 µg/mL
- MIC ([1]; Staphylococcus aureus, MRSA isolate 2011, 24FEB06): 0.12 µg/mL
- MIC50 [1, 3]: 0.12 µg/mL
- MIC90 [1, 3]: 0.12 µg/mL
- MIC Range ([2]; 6 unconfirmed VISA isolates (vancomycin MIC 4 ug/ml), combinations at 2.5:1): ≦.015-2 μg/ml
- MIC ([2]; Unconfirmed VISA isolate 2013, 03MAR06): 0.12 µg/mL
- MIC ([2]; Unconfirmed VISA isolate 2014, 03MAR06): 2 µg/mL
- MIC ([2]; Unconfirmed VISA isolate 2015, 03MAR06): < 0.015 µg/mL
- MIC ([2]; Unconfirmed VISA isolate 2016, 03MAR06): 0.06 µg/mL
- MIC ([2]; Unconfirmed VISA isolate 2017, 03MAR06): 0.03 µg/mL
- MIC ([2]; Unconfirmed VISA isolate 2019, 03MAR06): 2 µg/mL
Compound: CN(C)c1ccc(O)c2c1C[C@H]1C[C@H]3[C@H](N(C)C)C(O)=C(C(N)=O)C(=O)[C@@]3(O)C(O)=C1C2=O [MI, minocycline]
